From ChEMBL document CHEMBL5331096, “Pseudo-irreversible butyrylcholinesterase inhibitors: Structure-activity relationships, computational and crystallographic study of the N-dialkyl O-arylcarbamate warhead” (Eur J Med Chem, 2023)
Active and inactive are the calls of the source. No cut-off for these calls is given here.

Legend:
Cholinesterase [1] = target: T1, Cholinesterase (Homo sapiens, UniProt P06276); assay: Inhibition of human BChE using butyrylthiocholine iodide as substrate preincubated for 30 mins followed by substrate addition and measured for 2 mins by spectrophotometry based Ellman's method
T1 sequence (P06276 whole entry): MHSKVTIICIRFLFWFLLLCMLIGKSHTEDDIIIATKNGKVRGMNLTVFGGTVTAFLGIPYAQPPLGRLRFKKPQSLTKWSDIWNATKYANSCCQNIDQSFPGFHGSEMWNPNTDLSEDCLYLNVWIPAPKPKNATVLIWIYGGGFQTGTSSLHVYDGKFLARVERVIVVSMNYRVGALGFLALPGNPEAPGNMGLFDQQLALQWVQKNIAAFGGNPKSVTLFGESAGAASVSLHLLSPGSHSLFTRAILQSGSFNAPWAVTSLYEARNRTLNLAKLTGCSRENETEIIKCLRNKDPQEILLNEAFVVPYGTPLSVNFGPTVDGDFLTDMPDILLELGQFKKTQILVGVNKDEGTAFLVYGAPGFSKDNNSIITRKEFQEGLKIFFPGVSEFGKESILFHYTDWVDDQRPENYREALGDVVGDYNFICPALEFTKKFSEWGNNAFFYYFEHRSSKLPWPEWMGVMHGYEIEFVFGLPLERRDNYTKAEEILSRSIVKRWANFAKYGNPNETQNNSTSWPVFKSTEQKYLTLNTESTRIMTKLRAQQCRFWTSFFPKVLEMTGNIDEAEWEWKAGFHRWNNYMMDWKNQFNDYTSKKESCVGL

Acetylcholinesterase [2] = target: T2, Acetylcholinesterase (Homo sapiens, UniProt P22303); assay: Inhibition of human AChE assessed as residual activity using acetylthiocholine iodide as substrate at 100 uM preincubated for 30 mins followed by substrate addition and measured for 2 mins by spectrophotometry based Ellman's method relative to control; conditions: time 32.0 min
T2 sequence (P22303 whole entry): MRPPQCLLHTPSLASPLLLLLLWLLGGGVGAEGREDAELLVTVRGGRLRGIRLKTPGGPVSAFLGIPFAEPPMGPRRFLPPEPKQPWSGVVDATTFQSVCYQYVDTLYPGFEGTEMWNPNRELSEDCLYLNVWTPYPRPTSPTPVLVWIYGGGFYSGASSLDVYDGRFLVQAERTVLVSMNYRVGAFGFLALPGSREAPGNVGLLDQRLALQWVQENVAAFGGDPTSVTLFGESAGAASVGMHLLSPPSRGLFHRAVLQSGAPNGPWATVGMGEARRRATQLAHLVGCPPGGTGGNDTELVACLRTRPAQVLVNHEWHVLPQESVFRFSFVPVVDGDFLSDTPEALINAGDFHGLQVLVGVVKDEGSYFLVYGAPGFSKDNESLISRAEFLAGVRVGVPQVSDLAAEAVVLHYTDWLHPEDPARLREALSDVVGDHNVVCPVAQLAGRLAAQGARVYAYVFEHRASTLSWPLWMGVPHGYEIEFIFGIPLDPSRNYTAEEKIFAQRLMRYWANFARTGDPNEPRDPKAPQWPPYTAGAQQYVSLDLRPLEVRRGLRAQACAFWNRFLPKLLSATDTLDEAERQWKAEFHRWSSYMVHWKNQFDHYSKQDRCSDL

Cholinesterase [3] = target: T1, Cholinesterase; assay: Time dependent inhibition of human BChE using butyrylthiocholine iodide as substrate preincubated for 30 mins followed by substrate addition and measured for 2 mins by spectrophotometry based Ellman's method; conditions: time 32.0 min
Acetylcholinesterase [4] = target: T2, Acetylcholinesterase; assay: Time dependent inhibition of human AChE using acetylthiocholine iodide as substrate preincubated for 30 mins followed by substrate addition and measured for 2 mins by spectrophotometry based Ellman's method; conditions: time 32.0 min
Acetylcholinesterase [5] = target: T2, Acetylcholinesterase; assay: Time dependent inhibition of human AChE using acetylthiocholine iodide as substrate preincubated for 5 mins followed by substrate addition and measured for 2 mins by spectrophotometry based Ellman's method; conditions: time 7.0 min
Cholinesterase [6] = target: T1, Cholinesterase; assay: Binding affinity to human BChE assessed as half life incubated for 1 hr by Ellman's method
Cholinesterase [7] = target: T1, Cholinesterase; assay: Time dependent inhibition of human BChE using butyrylthiocholine iodide as substrate preincubated for 5 mins followed by substrate addition and measured for 2 mins by spectrophotometry based Ellman's method; conditions: time 7.0 min
Acetylcholinesterase [8] = target: T2, Acetylcholinesterase; assay: Inhibition of human AChE using acetylthiocholine iodide as substrate preincubated for 5 mins followed by substrate addition and measured for 2 mins by spectrophotometry based Ellman's method
Cholinesterase [9] = target: T1, Cholinesterase; assay: Binding affinity to human BChE assessed as gibbs free energy change
Cholinesterase [10] = target: T1, Cholinesterase; assay: Binding affinity to human BChE assessed as decarbamoylation rate constant at 25 degree C incubated for 1 hr by Ellman's method
Cholinesterase [11] = target: T1, Cholinesterase; assay: Inhibition of human BChE using butyrylthiocholine iodide as substrate preincubated for 5 mins followed by substrate addition and measured for 2 mins by spectrophotometry based Ellman's method
Cholinesterase [12] = target: T1, Cholinesterase; assay: Binding affinity to human BChE assessed as inhibition constant
Cholinesterase [13] = target: T1, Cholinesterase; assay: Binding affinity to human BChE assessed as pseudo-first order inhibition rate at 5 nM by Ellman's method
HepG2 = assay: Cytotoxicity against human HepG2 cells assessed as inhibition of cell growth measured after 48 hrs by MTS assay; type: functional, cell-based; conditions: HepG2, 48 h
Cholinesterase [14] = target: T1, Cholinesterase; assay: Binding affinity to human BChE assessed as pseudo-first order inhibition rate at 50 nM by Ellman's method
Cholinesterase [15] = target: T1, Cholinesterase; assay: Binding affinity to human BChE assessed as carbamoylation rate constant by Ellman's method
SH-SY5Y = assay: Cytotoxicity against human SH-SY5Y cells assessed as inhibition of cell growth measured after 48 hrs by MTS assay; type: functional, cell-based
Cholinesterase [16] = target: T1, Cholinesterase; assay: Binding affinity to human BChE assessed as pseudo-first order inhibition rate at 20 nM by Ellman's method
Cholinesterase [17] = target: T1, Cholinesterase; assay: Binding affinity to human BChE assessed as pseudo-first order inhibition rate at 10 nM by Ellman's method
[18] = target: Cholinesterases; ACHE & BCHE (Homo sapiens) (UniProt P06276+P22303); assay: Selectivity ratio of IC50 for human AChE to IC50 for human BChE; type: protein assay
Cholinesterases; ACHE & BCHE (Homo sapiens), sequence (P06276 whole entry, looked up): as the sequence (P06276 whole entry) above
Cholinesterases; ACHE & BCHE (Homo sapiens), sequence (P22303 whole entry, looked up): as the sequence (P22303 whole entry) above

Acetylcholinesterase [19] = target: T2, Acetylcholinesterase; assay: Binding affinity to recombinant human AChE assessed as appearance of fluorescent bands at 10 uM incubated for 4 hrs by Western blot analysis
Acetylcholinesterase [20] = target: T2, Acetylcholinesterase; assay: Binding affinity to recombinant human AChE assessed as appearance of fluorescent bands at 10 uM incubated for 4 hrs in presence of BW284c51 by Western blot analysis
Cholinesterase [21] = target: T1, Cholinesterase; assay: Binding affinity to human BChE plasma assessed as appearance of fluorescent bands at 10 uM incubated for 30 mins in presence of isoOMPA by Western blot analysis; type: cell-free
Cholinesterase [22] = target: T1, Cholinesterase; assay: Binding affinity to human BChE plasma assessed as appearance of fluorescent bands at 10 uM incubated for 30 mins by Western blot analysis; type: cell-free
Cholinesterase [23] = target: T1, Cholinesterase; assay: Binding affinity to recombinant human BChE assessed as appearance of fluorescent bands at 10 uM incubated for 4 hrs by Western blot analysis
Cholinesterase [24] = target: T1, Cholinesterase; assay: Binding affinity to human BChE plasma assessed as appearance of fluorescent bands at 10 uM incubated for 30 mins in presence of ethopropazine by Western blot analysis; type: cell-free
Cholinesterase [25] = target: T1, Cholinesterase; assay: Binding affinity to human BChE plasma assessed as appearance of fluorescent bands at 10 uM incubated for 30 mins in presence of BW284c51 by Western blot analysis; type: cell-free

Row | SMILES | inhibition (Acetylcholinesterase [5]) | inhibition (Cholinesterase [7]) | IC50 (Acetylcholinesterase [8]) | IC50 (Cholinesterase [11]) | also measured
1 | CN(C)C(=O)Oc1cccc2cc[nH]c12 | – | – | – | – | IC50 (Cholinesterase [1]): 1660 nM; Activity (Acetylcholinesterase [2]): 2.4%; inhibition (Cholinesterase [3]): Active; inhibition (Acetylcholinesterase [4]): Active
2 | CCN(C)C(=O)Oc1cccc2cc[nH]c12 | – | – | – | – | IC50 (Cholinesterase [1]): 1390 nM; Activity (Acetylcholinesterase [2]): 56.2%; inhibition (Cholinesterase [3]): Active; inhibition (Acetylcholinesterase [4]): inactive
3 | CN(CCC1CCCCCC1)Cc1c[nH]c2c(OC(=O)N(C)Cc3ccccc3)cccc12 | Active | Active | 531 nM | 11.6 nM | T1/2 (Cholinesterase [6]): 92.2 h; deltaG (Cholinesterase [9]): 25.2 kcal/mol; K (Cholinesterase [10]): 0.007 h⁻¹
4 | CN(CCC1CCCCCC1)Cc1c[nH]c2c(OC(=O)N3CCCCC3)cccc12 | Active | – | 529 nM | 5.28 nM | –
5 | CCN(CC)C(=O)Oc1cccc2c(CN(C)CCC3CCCCCC3)c[nH]c12 | inactive | Active | 5590 nM | 61 nM | T1/2 (Cholinesterase [6]): 318 h; deltaG (Cholinesterase [9]): 25.9 kcal/mol; K (Cholinesterase [10]): 0.002 h⁻¹
6 | O=C(Oc1cccc2cc[nH]c12)N1CCOCC1 | – | – | – | – | IC50 (Cholinesterase [1]): 2390 nM; Activity (Acetylcholinesterase [2]): 19.3%; inhibition (Cholinesterase [3]): inactive
7 | CC(C)N(C(=O)Oc1cccc2c(CN(C)CCC3CCCCCC3)c[nH]c12)C(C)C | inactive | inactive | 4630 nM | 230 nM | –
8 | CC(C)N(C(=O)Oc1ccc2c(CN(C)CCC3CCCCCC3)c[nH]c2c1)C(C)C | inactive | inactive | 337 nM | 86.2 nM | –
9 | C#CCN(C)C(=O)Oc1cccc2c(CN(C)CCC3CCCCCC3)c[nH]c12 | Active | – | 340 nM | 7.75 nM | T1/2 (Cholinesterase [6]): 49 h; deltaG (Cholinesterase [9]): 24.8 kcal/mol; K (Cholinesterase [10]): 0.014 h⁻¹
10 | CN(CCC1CCCCCC1)Cc1c[nH]c2c(OC(=O)N(C)C(C)(C)C)cccc12 | inactive | inactive | 10000 nM | 147 nM | –
11 | C#CCCCN(C)C(=O)Oc1cccc2c(CN(C)CCC3CCCCCC3)c[nH]c12 | Active | Active | 1080 nM | 12.3 nM | T1/2 (Cholinesterase [6]): 46.5 h; deltaG (Cholinesterase [9]): 24.8 kcal/mol; K (Cholinesterase [10]): 0.015 h⁻¹
12 | CN(CCC1CCCCCC1)Cc1c[nH]c2cc(OC(=O)N(C)C)ccc12 | Active | Active | 6720 nM | 45.6 nM | –
13 | C#CCN(CC#C)C(=O)Oc1cccc2c(CN(C)CCC3CCCCCC3)c[nH]c12 | Active | – | 464 nM | 32.8 nM | T1/2 (Cholinesterase [6]): 11.2 h; deltaG (Cholinesterase [9]): 24 kcal/mol; K (Cholinesterase [10]): 0.062 h⁻¹
14 | C#CCN(C(=O)Oc1cccc2c(CN(C)CCC3CCCCCC3)c[nH]c12)C(C)C | inactive | inactive | 5350 nM | 80.5 nM | –
15 | CCN(C)C(=O)Oc1cccc2c(CN(C)CCC3CCCCCC3)c[nH]c12 | Active | Active | 6820 nM | 10.4 nM | –
16 | CN(CCC1CCCCCC1)Cc1c[nH]c2c(OC(=O)N3CCOCC3)cccc12 | Active | – | 3580 nM | 11.4 nM | –
17 | CON(C)C(=O)Oc1cccc2c(CN(C)CCC3CCCCCC3)c[nH]c12 | inactive | – | 1100 nM | 158 nM | –
18 | CC(C)N(C)C(=O)Oc1cccc2c(CN(C)CCC3CCCCCC3)c[nH]c12 | Active | Active | 2830 nM | 114 nM | –
19 | C#CCN(C)C(=O)Oc1ccc2c(CN(C)CCC3CCCCCC3)c[nH]c2c1 | inactive | inactive | 1460 nM | 10.2 nM | –
20 | C#CCN(CC)C(=O)Oc1cccc2c(CN(C)CCC3CCCCCC3)c[nH]c12 | Active | Active | 7530 nM | 21.9 nM | –
21 | CN(CCC1CCCCCC1)Cc1c[nH]c2c(OC(=O)N(C)C)cccc12 | Active | Active | 559 nM | 1.76 nM | Ki (Cholinesterase [12]): 1.05 nM; Kobs (Cholinesterase [13]): 0.447 min⁻¹; T1/2 (Cholinesterase [6]): 13 h; IC50 (HepG2): 7100 nM; Kobs (Cholinesterase [14]): 3.75 min⁻¹; deltaG (Cholinesterase [9]): 24 kcal/mol; K (Cholinesterase [15]): 0.177 M⁻¹ s⁻¹; IC50 (SH-SY5Y): 5800 nM; K (Cholinesterase [10]): 0.053 h⁻¹; Kobs (Cholinesterase [16]): 1.85 min⁻¹; Kobs (Cholinesterase [17]): 0.677 min⁻¹; Ratio IC50 [18]: 300
22 | CN(CCC1CCCCCC1)Cc1c[nH]c2c(O)cccc12 | – | – | 11600 nM | 373 nM | –
23 | CN(CCC1CCCCCC1)Cc1c[nH]c2c(OC(=O)N(C)N(C)C)cccc12 | Active | Active | 5560 nM | 13.2 nM | –
24 | C#CCCCCCCCCCN(C)C(=O)Oc1cccc2c(CN(C)CCC3CCCCCC3)c[nH]c12 | Active | Active | 123 nM | 3.77 nM | Activity (Acetylcholinesterase [19]): Active; Activity (Acetylcholinesterase [20]): inactive; Activity (Cholinesterase [21]): inactive; Activity (Cholinesterase [22]): Active; Activity (Cholinesterase [23]): Active; Activity (Cholinesterase [24]): inactive; Activity (Cholinesterase [25]): inactive
25 | CC(C)N(C(=O)Oc1cccc2cc[nH]c12)C(C)C | – | – | – | – | IC50 (Cholinesterase [1]): 12800 nM; Activity (Acetylcholinesterase [2]): 66.5%; inhibition (Cholinesterase [3]): inactive; inhibition (Acetylcholinesterase [4]): inactive
